{"source": "patent US20220370486A1", "about": "“COMBINATION TREATMENT OF SYSTEMIC FUNGAL INFECTIONS” (The Board of Trustees of the University of Illinois, priority 2019, published 2022)", "key": {"[1]": {"assay": "Isothermal titration calorimetry (ITC) sterol binding", "text": "(§1) This key discovery opened a path to the rational development of a non-toxic AmB variant. To probe its predicted role in sterol binding, the hydroxyl group was synthetically deleted at the C2′ position on the mycosamine appendage.\nA practical 11-step synthesis of C2′epiAmB using a frontier site-selective acylation method was developed. Wilcock, B. C. et al., Nat Chem 2012, 4 (12), 996-1003; Uno, B. E. A synthesis enabled understanding of Amphotericin B leading to derivatives with improved therapeutic indices. University of Illinois at Urbana-Champaign, 2014. The sterol binding and cell killing activities was then determined."}, "human red blood cells": {"test_system": "human red blood cells", "assay": "Toxicity to human red blood cells", "format": "cell-based", "text": "as §1\n(§2) In each case, C2′epiAmB is non-toxic to human red blood cells, primary hREC, mice, and rats up to the highest dose tested."}, "primary hREC": {"test_system": "primary hREC", "assay": "Toxicity to primary hREC", "format": "cell-based, human", "text": "as §1, §2"}, "yeast": {"test_system": "yeast", "assay": "Activity against yeast", "format": "cell-based", "text": "as §1"}, "A. flavus ATCC 204304": {"test_system": "A. flavus ATCC 204304", "assay": "Checkerboard broth microdilution (CLSI)", "format": "cell-based", "settings": "Aspergillus flavus, ATCC204304; single agent; isolate ATCC 204304", "protocol": "(§3) Isolates were tested against varying concentrations of amphotericin B and C2′epiAmB (range, 0.06 to 4 mg/L) and combined with fluconazole (range, 0.12 to 128 mg/L) or ketoconazole (range 0.008 to 8 mg/L) or voriconazole (range, 0.004 to 4 mg/L) using a checkerboard grid design following the Clinical and Laboratory Standards Institute (CLSI) broth microdilution method (M23Ed5)."}, "A. flavus SC 1085986": {"test_system": "A. flavus SC 1085986", "assay": "Checkerboard broth microdilution (CLSI)", "format": "cell-based", "settings": "Aspergillus flavus; single agent; isolate 1085986", "protocol": "as §3"}, "A. fumigatus 1077391": {"test_system": "A. fumigatus 1077391", "assay": "Checkerboard broth microdilution (CLSI)", "format": "cell-based", "settings": "Aspergillus fumigatus; single agent; isolate 1077391", "protocol": "as §3"}, "[2]": {"test_system": "A. fumigatus ATCC MYA-3626", "assay": "Checkerboard broth microdilution (CLSI)", "format": "cell-based", "settings": "Aspergillus fumigatus, single agent; isolate ATCC MYA-3626; read-out: MIC", "protocol": "as §3"}, "C. albicans 967374": {"test_system": "C. albicans 967374", "assay": "Checkerboard broth microdilution (CLSI)", "format": "cell-based", "settings": "Candida albicans, single agent; isolate 967374; read-out: MIC", "protocol": "as §3"}, "C. auris 1081160": {"test_system": "C. auris 1081160", "assay": "Checkerboard broth microdilution (CLSI)", "format": "cell-based", "settings": "Candidozyma auris; single agent; isolate 1081160; read-out: MIC", "protocol": "as §3"}, "C. glabrata 1046695": {"test_system": "C. glabrata 1046695", "assay": "Checkerboard broth microdilution (CLSI)", "format": "cell-based", "settings": "Nakaseomyces glabratus; single agent; isolate 1046695; read-out: MIC", "protocol": "as §3"}, "C. krusei 975691": {"test_system": "C. krusei 975691", "assay": "Checkerboard broth microdilution (CLSI)", "format": "cell-based", "settings": "Pichia kudriavzevii, single agent; isolate 975691; read-out: MIC", "protocol": "as §3"}, "C. krusei ATCC 6258": {"test_system": "C. krusei ATCC 6258", "assay": "Checkerboard broth microdilution (CLSI)", "format": "cell-based", "settings": "Pichia kudriavzevii, ATCC6258, single agent; isolate ATCC 6258; read-out: MIC", "protocol": "as §3"}, "C. parapsilosis 1048737": {"test_system": "C. parapsilosis 1048737", "assay": "Checkerboard broth microdilution (CLSI)", "format": "cell-based", "settings": "single agent, isolate 1048737", "protocol": "as §3"}, "[3]": {"test_system": "C. parapsilosis ATCC 22019", "assay": "Checkerboard broth microdilution (CLSI)", "format": "cell-based", "settings": "Lodderomyces parapsilosis, ATCC22019, single agent; isolate ATCC 22019; read-out: MIC", "protocol": "as §3"}, "C. tropicalis 1046709": {"test_system": "C. tropicalis 1046709", "assay": "Checkerboard broth microdilution (CLSI)", "format": "cell-based", "settings": "Candida tropicalis; single agent; isolate 1046709", "protocol": "as §3"}, "F. oxysporum SC 1087597": {"test_system": "F. oxysporum SC 1087597", "assay": "Checkerboard broth microdilution (CLSI)", "format": "cell-based", "settings": "Fusarium oxysporum; single agent; isolate 1087597", "protocol": "as §3"}, "F. solani SC 1047542": {"test_system": "F. solani SC 1047542", "assay": "Checkerboard broth microdilution (CLSI)", "format": "cell-based", "settings": "Fusarium solani; single agent; isolate 1047542", "protocol": "as §3"}}, "note": "Like-named read-outs stand apart in the source and are kept apart here.", "data": [{"compound": "CC1C=CC=CC=CC=CC=CC=CC=CC(OC2CC(N)C(O)C(C)O2)CC2OC(O)(CC(O)CC(O)C(O)CCC(O)CC(O)CC(=O)OC(C)C(C)C1O)CC(O)C2C(=O)O", "note": "(centres unmarked) [C2′deOAmB]", "values": [{"measurement": "binding of ergosterol by ITC", "setting": "[1]", "result": "bind ergosterol"}, {"measurement": "binding of cholesterol by ITC", "setting": "[1]; within the detection limits of ITC", "result": "not cholesterol"}, {"measurement": "toxicity to human red blood cells", "setting": "human red blood cells", "result": "nontoxic"}, {"measurement": "toxicity to primary hREC", "setting": "primary hREC", "result": "nontoxic"}, {"measurement": "activity against yeast", "setting": "yeast", "result": "retained good activity"}]}, {"compound": "C[C@@H](c1ncncc1F)[C@](O)(Cn1cncn1)c1ccc(F)cc1F", "note": "[Voriconazole, voriconazole]", "values": [{"measurement": "MIC", "setting": "A. flavus ATCC 204304", "result": 1, "unit": "µg/mL"}, {"measurement": "MIC", "setting": "A. flavus SC 1085986", "result": 1, "unit": "µg/mL"}, {"measurement": "MIC", "setting": "A. fumigatus 1077391", "result": 2, "unit": "µg/mL"}, {"measurement": "MIC", "setting": "[2]", "result": 0.5, "unit": "µg/mL"}, {"measurement": "MIC", "setting": "C. albicans 967374", "result": 0.25, "unit": "µg/mL"}, {"measurement": "MIC", "setting": "C. auris 1081160", "result": 1, "unit": "µg/mL"}, {"measurement": "MIC", "setting": "C. glabrata 1046695", "result": 4, "unit": "µg/mL"}, {"measurement": "MIC", "setting": "C. krusei 975691", "result": 4, "unit": "µg/mL"}, {"measurement": "MIC", "setting": "C. krusei ATCC 6258", "result": 0.25, "unit": "µg/mL"}, {"measurement": "MIC", "setting": "C. parapsilosis 1048737; Lodderomyces parapsilosis, read-out: MIC", "result": 8, "unit": "ng/mL"}, {"measurement": "MIC", "setting": "C. parapsilosis 1048737", "result": 15, "unit": "ng/mL"}, {"measurement": "MIC", "setting": "[3]", "result": 0.03, "unit": "µg/mL"}, {"measurement": "MIC", "setting": "C. tropicalis 1046709", "result": 0.12, "unit": "µg/mL"}, {"measurement": "MIC", "setting": "F. oxysporum SC 1087597", "result": 4, "unit": "µg/mL"}, {"measurement": "MIC", "setting": "F. solani SC 1047542", "result": 4, "unit": "µg/mL"}]}]}
